Results: patent publication US9034863B2, “Compositions and methods for inhibiting entry of a hepatic virus” (The Board of Trustees of the University of Illinois, priority 2008, dated 2015)
“Also recorded” adds a separate entry of the source.

Tested on: HCV genotype 1b subgenomic replicon
Test: HCV sg1b replicon RNA replication in Huh7 cells, RT-qPCR
Format: cell-based, Hepatitis C virus (HCV)
Conditions: increasing doses, 72 hours

For `O=C1[C@H](CC[C@H](O)c2ccc(F)cc2)[C@@H](c2ccc(O)cc2)N1c1ccc(F)cc1` [ezetimibe, 1-(4-fluorophenyl)-(3R)-[3-(4-fluorophenyl)-(3S)-hydroxypropyl]-(45)-(4-hydroxyphenyl)-2-azetidinone], the “sg1b HCV RNA steady-state levels” value was “did not inhibit HCV subgenomic RNA replication; also recorded: no significant reduction”.
